Measurements published in paper PMC8541353, “A Novel Phenylpyrrolidine Derivative: Synthesis and Effect on Cognitive Functions in Rats with Experimental Ishemic Stroke” (Molecules, 2021).

Columns and labels:
Format in all cases: in vivo, Wistar rats
rats with MCAO [1] = test: Beam walking test (BWT) after MCAO; set-up: key to Left forelimb score / Right forelimb score / Left hindlimb score / Right hindlimb score: score = errors + 0.5 × slides × 100/total number of steps; conditions: for Animals that failed to train for the BWT test: after MCAO, days 12–14; for Left forelimb score / Left hindlimb score / Right forelimb score / Right hindlimb score: day 14 after MCAO, mean ± SD
Description: A MCAO animal model was used to characterize the effects of compound 1 on the development and resolution of stroke. At the baseline, we performed the MRI and hole-board test before MCAO surgery. Once animals recovered after the surgery, we stratified them based on their background psycho-emotional status and performed a control MRI to access whether the occlusion was sufficient or not. […] From 24 h to day 7, the neurological status was assessed daily according to the neurological scale (mNSS). By the end of day 7, animals underwent MRI. In addition, MRI was performed on days 14 and 28 (Shceme 3)The hole-board test was repeated on days 10 and 24. The degree of motor function impairment, the deficit of exploratory behavior, and the recovery process were assessed in the beam walking test (BWT), which was performed twice on days 12 and 14. An open field test was carried out on days 16 and 26.
The increased locomotor activity, expanded orientational research activity, and reduced anxiety and depressive behavior in rats treated with compound 1 highlighted the possible benefits of the compound in post-ischemic stroke management. As stroke affects not only locomotor activity but also the cognitive behavior, we conducted an additional beam walking test. It is proven that depression and anxiety in the post-stroke period increase the risk of mortality and affect the functional recovery of patients. There is a direct relationship between the severity of cognitive deficits, patients’ survival, and their successful social integration. Conventionally, BWT is aimed at finding motor deficits on the contralateral side of the brain lesion. However, based on the test methodology, which was testing animals before surgery and on the 12th–14th days after surgery, we can indirectly conclude whether the memory trace is preserved or lost. […] Most of the animals from the saline group sat still and one rat fell. Since the hippocampus, which is a structure responsible for the formation of both […] and long-term memory, is involved in the pathological process of ischemia, in rats, we hypothesized that the ability to reproduce and form a memorable trace can be also affected in our MCAO model. According to MRI data, the hippocampus was indeed affected by MCAO. Thus, compound 1 possibly helped to restore neural connections in the hippocampus as quickly as possible.
(§1) In the first experimental series, the following test systems were used: HBT (OpenScience, Russia), OFT (OpenScience), and LDT (OpenScience). The design for the second experimental series was as follows. All rat behavioral changes were evaluated during the four weeks after stroke simulation. Individuals who performed these procedures were double-blinded. General neurological disorders were assessed using the modified neurological severity score (mNSS). Motor and cognitive impairment were evaluated using the following functional tests: BWT (OpenScience), HBT (OpenScience), and OFT (OpenScience). The BWT was performed between postoperative days 12 and 14. In this test, motor dysfunction in all four limbs was evaluated; specifically, the number of steps, errors, and slides were counted. The overall score was calculated using the following formula: score = errors + 0.5 × slides × 100/total number of steps [47]. The beam apparatus consists of 165 cm beams with a flat surface of 10 mm or 6 mm width, resting 100 cm above the table top on two poles. A black box is placed at the end of the beam as the finish point. Nesting material from home cages is placed in the black box to attract the rat to the finish point. A lamp (with 60-watt light bulb) is used at the start to stimulate the animals to move towards the end.

intact animals = test: Light-dark box test (LDB) in intact animals; conditions: intact rats, day 8; compound 1 125 mg kg^−1, piracetam 300 mg kg^−1, intraperitoneally for 5 days; mean and SD
Excerpt: Before the study, the intact animals were subjected to the hole-board test (HBT), weighed, and stratified into three uniform groups in terms of orientational/exploratory activity and weight. […] On day 7, we performed OFT (open field test), followed by LDB (light—dark box test) on day 8 (Scheme 3, Step 1). These tests assess the activity and describe the behavior of the animals. According to OFT, compound 1 decreased the vertical activity and the immobility time compared to the saline-treated group (Table 2).
Before conducting the experiments, the animals underwent the HBT and were allocated to groups based on their behavior score and weight. Kullback–Leibler divergence method for allocation based on two numerical parameters was used for allocation. We used a sum score for behavior tests and weight. Subsequently, two experimental series were performed. In the first series, rat behavior without stroke modeling after injection of compound 1 (experimental group, n = 10) or saline (control group, n = 10) was evaluated (Scheme 3a). […] Compound 1 was injected at a dose of 125 mg kg^−1 and an injection volume of 0.5 mL. […] For the experiments, the following predetermined exclusion criteria were used: (1) incomplete MCAO indicated by an incomplete lesion on magnetic resonance imaging (MRI) after 24 h [n = 4]and (2) post-operative weight loss of > 20% and severe animal condition within the first post-stroke 48 h [n = 3]. Animals reached humane endpoints based on the absence of nociceptive reflex withdrawal responses, hypothermia, and heart rate reduction to 100–150 beats min^−1. As steroid treatment could have influenced the experiment, rats were humanely euthanized according to the ethical protocol. The experiment design is presented in Scheme 3b.
as §1

rats with MCAO [2] = test: Survival within 28 days after MCAO (Kaplan-Meier, log-rank); conditions: 28 days after first administration, log-rank test
Description: All statistical analyses were performed using the IBM® SPSS® Statistics Version 23.0 and R software Version 3.3.2 (R Foundation for Statistical Computing, Vienna, Austria). For normally distributed quantitative continuous variables, the mean and standard deviation (SD) values were calculated and presented as descriptive statistics. For ordinal variables, median and 25- and 75-percentiles were calculated. For qualitative variables, the absolute count and percentage value for each category were calculated. For quantitative variables, the normality of distribution was verified using frequency histograms and Kolmogorov–Smirnov test. A two-tailed p-value < 0.05 was considered statistically significant. To compare changes in structure displacement, lesion size, and neurological scale, a general linear repeated measures model with a group as a fixed factor was used. One-way multivariate analysis of variance was used in the analysis of behavior. Experimental groups were designed to have an equal sample size (8 vs. 8 rats) based on sample size calculations for the independent sample t-test using Statistica 10 software (type I error 0.05, type II error 0.20). Animal survival was estimated by the Kaplan–Meier method using the log-rank test.

SMILES	Animals that failed to train for the BWT test (rats with MCAO [1])	Left forelimb score (rats with MCAO [1])	Left hindlimb score (rats with MCAO [1])	Right forelimb score (rats with MCAO [1])	Right hindlimb score (rats with MCAO [1])	Number of crossings (n) (intact animals)	Number of peeking out events (n) (intact animals)	Time spent in the light compartment (intact animals) [s]	Survival of animals vs other groups (rats with MCAO [2])
O=C(CN1CC(c2ccccc2)CC1=O)NCCS(=O)(=O)[O-].[K+] (stereo not drawn) [Compound 1, potassium 2-[2-(2-oxo-4-phenylpyrrolidin-1-yl)acetamido]ethane-1-sulfonate]	No animals failed	42.2 ± 28.0	28.8 ± 15.3	11.6 ± 13.8	45.8 ± 30.4	2.9 ± 1.2	5.2 ± 2.8	16.5 ± 8.3	no significant differences
NC(=O)CN1CCCC1=O [Piracetam, reference compound]	more than half of the animals and five	32.8 ± 26.4	24.8 ± 22.2	12.4 ± 16.0	36.0 ± 30.4	3.7 ± 1.6	4.8 ± 2.5	26.3 ± 13.4	no significant differences
